Laboratory results as given in patent publication US20110003772A1, “USE OF SPHINGOLIPIDS IN THE TREATMENT OF TYPE 2 DIABETES MELLITUS, INSULIN RESISTANCE AND METABOLIC SYNDROME” (priority 2004, published 2011).

Key:
[1] = system: insulin resistant mice (male ApoE3*Leiden mice); test: Hyperinsulinemic euglycemic clamp in insulin resistant mice on high fat, high fructose diet; format: in vivo; conditions: 0.3% (w/w) in high fat, compared to control group
Source text: (§1) The “gold standard” for insulin resistance is a test called the hyperinsulinemic euglycemic clamp study. It is a complicated and expensive study in which insulin and glucose is infused intravenously at several different doses to see what levels of insulin control different levels of glucose. Essentially, the method of Koopmans et al., 2001 and Voshol et al., 2001.
Male ApoE3*Leiden mice were fed with a high fat, high fructose diet (24% casein, 17% corn starch, 14% cellulose, 1% cholesterol, 24% bovine lard, 20% fructose; all w/w). After 8 weeks all mice in this group were moderately insulin resistant and were strongly insulin resistant after 18 weeks. Two parallel groups of mice (n=8) were fed for another 10 weeks the same diet, but containing 0.3% (w/w of the dry food) of either egg sphingomyelin or phytosphingosine.
In another parallel experiment, three groups of 8 mice each were fed the same high fat, high fructose diet for 18 weeks. One group received 0.3% egg sphingomyelin during the whole period, one group received 0.3% phytosphingosine during the whole period and the last group served as the control group (i.e. received no additional sphingolipid).
(§2) All mice were fasted overnight and anaesthetised by intraperitoneal injection of Hypnorm® (fentanyl-fluanisone) (0.5 ml/kg body weight) and midazolam (12.5 mg/kg body weight). Mice were kept anaesthetised by administering 50 μl of Hypnorm®/midazolam subcutaneous every 45 minutes.
(§3) A needle filled with PBS was inserted into the tail vein and was connected to two pumps (Model 100 series, KdScienticic, PA, USA): one with an insulin solution consisting of 3057 μl PBS, 400 μl citrate (30 μg/μl) and 543 μl insulin (1 U/ml), and one pump with a solution of 6.25 g D-glucose in 50 ml PBS. Before the infusion with the two solutions was started, a capillary of blood was drawn from the tail tip. Subsequently a bolus of 30 μl of insulin was given and the pumps were started (50 μl/h). The mice were given rest for 30 minutes. Then every 10 minutes the glucose level was measured with a glucose handmeter (Freestyle, Disetronic Medical Systems AG, Burgdorf, Germany) and the glucose infusion rate was adjusted until the glucose concentration in the blood was constant for at least 20 minutes and a capillary of blood was drawn.
(§4) The insulin and glucose levels in the capillaries were measured using a standard commercial kit, according to the manufacturer's instructions (Hexokinase method, Instruchemie); and insulin levels were measured by Ultrasensitive mouse insulin ELISA, enzyme immunoassay according to the manufacturer's instructions (Mercodia, Sweden)

female ob/ob mice [2] = test: Hyperinsulinemic euglycemic clamp analysis in overnight fasted ob/ob mice; format: in vivo; conditions: 1% PS diet; for Glucose (plasma) during clamp: overnight fasted
Procedure: as §1, §2, §3, §4
1.5 weeks after the last blood sample (necessary for full recovery of the mice) the ob/ob mice were fasted overnight and subjected to a hyperinsulinemic euglycemic clamp analysis. […]

female ob/ob mice [3] = test: Plasma parameters and body weight in 4 h fasted ob/ob mice fed chow or chow with 1% phytosphingosine; format: in vivo; conditions: for Body weight: mean ± SD of 10 mice; for Glucose (plasma) / Insulin (plasma): 4 h fasted, mean ± SD
Procedure: 20 female ob/ob mice (C57B1/6 background) were obtained from Charles River, The Netherlands and were acclimatized for a period of 2 weeks within the TNO-facilities. After a 4 hour fast, blood was drawn by tail bleeding and the animals were randomized according to body weight and plasma glucose levels. […] The mice were put on a regular chow diet (control) or regular chow supplemented with 1% phytosphingosine (1% PS). After three weeks of treatment a blood sample was drawn after a 4 hours fast and body weight was determined. […] The 1% PS treated mice maintained their initial body weight. […] We observed no differences in insulin levels between the groups.

3T3-L1 adipocytes = conditions: literature, Mei et al., 2002; cited from earlier work
PPAR-α = molecular target: T1, PPAR-α (Homo sapiens, UniProt Q07869); conditions: literature, Van Veldhoven et al., 2000; cited from earlier work
T1 sequence (Q07869 1-468): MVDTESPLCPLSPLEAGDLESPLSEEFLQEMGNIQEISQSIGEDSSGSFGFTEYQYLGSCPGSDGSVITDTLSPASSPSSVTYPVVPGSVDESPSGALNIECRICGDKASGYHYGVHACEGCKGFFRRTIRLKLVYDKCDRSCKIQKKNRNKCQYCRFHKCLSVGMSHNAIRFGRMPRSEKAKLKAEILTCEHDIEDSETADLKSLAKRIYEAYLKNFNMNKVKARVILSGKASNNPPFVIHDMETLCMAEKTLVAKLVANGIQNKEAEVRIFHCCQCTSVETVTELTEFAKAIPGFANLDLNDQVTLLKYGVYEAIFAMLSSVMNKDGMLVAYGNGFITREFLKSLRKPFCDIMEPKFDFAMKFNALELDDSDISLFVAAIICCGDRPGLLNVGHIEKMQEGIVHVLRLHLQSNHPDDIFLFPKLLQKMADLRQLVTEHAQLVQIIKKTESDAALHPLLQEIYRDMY

[4] = high fructose diet during the last 10 weeks of the 18 week experiment
[5] = high fructose diet during whole 18 weeks
[6] = T = 0 (starting point, before treatment), 1% PS group
[7] = T = 3 (3 weeks of chow with 1% PS)

With `CCCCCCCCCCCCCC[C@@H](O)[C@@H](O)[C@@H](N)CO` [phytosphingosine] the “infusion rate of glucose, percentage of the infusion rate in strongly insulin resistant control mice” value [1, 4] was 114%, the “infusion rate of glucose, percentage of the infusion rate in strongly insulin resistant control mice” value [1, 5] was 102% and the “glucose infusion rate (GIR)” value (female ob/ob mice [2]; vs. 46±8 in control ob/ob mice, P=0.001) was 4.5 ± 0.96 mL/h/kg. For the same molecule, the “Glucose (plasma) during clamp” value (female ob/ob mice [2]; Basal period (no insulin added)) was 7.3 ± 2.4 mmol/L, the “Glucose (plasma) during clamp” value (female ob/ob mice [2]; Hyperinsulinemic period) was 4.8 ± 1.3 mmol/L and the Body weight (female ob/ob mice [3]; [6]) was 42.2 ± 4.6 g. The “Glucose (plasma)” value (female ob/ob mice [3]; [6]) was 23.9 ± 5.1 mmol/L, the “Insulin (plasma)” value (female ob/ob mice [3]; [6]) was 25.8 ± 14.1 ng/mL and the “Insulin (plasma)” value (female ob/ob mice [3]; [7]) was 22.3 ± 6.8 ng/mL. The “Glucose (plasma)” value (female ob/ob mice [3]; T = 3 (3 weeks of chow with 1% PS), P < 0.01 vs. control) was 26.0 ± 7.0 mmol/L and the Body weight (female ob/ob mice [3]; [7]) was 41.7 ± 3.7 g.
In the case of `CCCCCCCCCCCCC/C=C/[C@@H](O)[C@H](CO)NC(C)=O` [C2-ceramide], the “antilipolytic action of insulin” value (3T3-L1 adipocytes) is given as “decrease the antilipolytic action of insulin” and the lipolysis (3T3-L1 adipocytes) is given as “stimulate lipolysis”.
For sphingomyelin, the “binding to the PPAR-α receptor” value (PPAR-α) is given as “not able to bind”, the “infusion rate of glucose, percentage of the infusion rate in strongly insulin resistant control mice” value [1, 4] is given as 102% and the “infusion rate of glucose, percentage of the infusion rate in strongly insulin resistant control mice” value [1, 5] is given as 117%.
In the case of phosphatidylcholine, the “binding to the PPAR-α receptor” value (PPAR-α) is listed as “not able to bind”.
In the case of `CCCCCCCCCCCCC/C=C/[C@@H](O)[C@H](CO)NC(=O)CCCCCCCCCCCCCCC` [N-hexadecanoyl-sphingenine], the “binding to the PPAR-α receptor” value (PPAR-α) is listed as “not able to bind”.
For `CCCCCCCCCCCCCCC[C@@H](O)[C@@H](N)CO` [sphinganine], the “binding to the PPAR-α receptor” value (PPAR-α) is listed as “strong binding ligands”.
For `CCCCCCCCCCCCC/C=C/[C@@H](O)[C@@H](N)CO` [sphingenine], the “binding to the PPAR-α receptor” value (PPAR-α) is listed as “strong binding ligands”.
For ceramide, the “binding to the PPAR-α receptor” value (PPAR-α) is given as “not able to bind”.
In the case of `CCCCCCCCCCCCC/C=C/[C@@H](O)[C@H](CO)NC(C)=O` [N-acetyl-sphingenine], the “binding to the PPAR-α receptor” value (PPAR-α) is listed as “not able to bind”.
In the case of `CCCCCCCCCCCCCCC[C@@H](O)[C@@H](N)COP(=O)(O)O` [sphinganine-1-phosphate], the “binding to the PPAR-α receptor” value (PPAR-α) is listed as “not able to bind”.
